From patent US20230248766A1, “METHODS OF TREATING OXIDATIVE STRESS TO MODULATE REDOX BALANCE, PREVENTING OXIDATIVE STRESS INDUCED CELL DAMAGE AND DEATH” (Redox Balance, LLC, priority 2019, published 2023)

How the values were obtained:
tomato plants = assay: Plant growth enhancement by treatment with water-soluble C60; type: in vivo
Source text: Treated plants weighed 2X untreated plants. […] Example 7. […] Treated plants weighed 2× untreated plants.

seeds = assay: Seed pre-treatment to enhance germination; type: in vivo; conditions: soaking seeds for 1 hour prior to placing in growing medium

polyhydroxy-C60
weight of treated plants relative to untreated plants (tomato plants; tomato plants after two weeks): 2 X | increases in growth rate (tomato plants; treatment of clones before initial planting): up to two times | germination (seeds): significant enhancement of germination
